Each block holds one compound with its values, some of them ahead of it. Activity calls are given as the source filed them. The rule behind the calls is not given here.
Columns and labels:
[1] = biological target: Intersectin-1 (Homo sapiens) (UniProt Q15811); experiment: Inhibition of N-terminal 6x-His-tagged recombinant human ITSN1 DH and PH domain (1227 to 1571 residues) expressed in Escherichia coli BL21 (DE3) assessed as reduction in 50 nM […] GDP/GTP nucleotide exchange upon 2 uM N-terminal-GST-tagged Cdc42 (1 to 182 residues) at 20 uM by BODIPY-FL-GDP dissociation assay
[2] = biological target: T1, Son of sevenless homolog 1 (Mus musculus) (UniProt Q62245); experiment: Inhibition of SOS1 in overnight serum-starved mouse NIH/3T3 cells assessed as effect on Ras-GTP levels at 20 to 50 uM pre-incubated for 2 hrs before EGF stimulation for 5 mins by GST-Raf1 effector domain pulldown assay
T1 sequence (whole entry): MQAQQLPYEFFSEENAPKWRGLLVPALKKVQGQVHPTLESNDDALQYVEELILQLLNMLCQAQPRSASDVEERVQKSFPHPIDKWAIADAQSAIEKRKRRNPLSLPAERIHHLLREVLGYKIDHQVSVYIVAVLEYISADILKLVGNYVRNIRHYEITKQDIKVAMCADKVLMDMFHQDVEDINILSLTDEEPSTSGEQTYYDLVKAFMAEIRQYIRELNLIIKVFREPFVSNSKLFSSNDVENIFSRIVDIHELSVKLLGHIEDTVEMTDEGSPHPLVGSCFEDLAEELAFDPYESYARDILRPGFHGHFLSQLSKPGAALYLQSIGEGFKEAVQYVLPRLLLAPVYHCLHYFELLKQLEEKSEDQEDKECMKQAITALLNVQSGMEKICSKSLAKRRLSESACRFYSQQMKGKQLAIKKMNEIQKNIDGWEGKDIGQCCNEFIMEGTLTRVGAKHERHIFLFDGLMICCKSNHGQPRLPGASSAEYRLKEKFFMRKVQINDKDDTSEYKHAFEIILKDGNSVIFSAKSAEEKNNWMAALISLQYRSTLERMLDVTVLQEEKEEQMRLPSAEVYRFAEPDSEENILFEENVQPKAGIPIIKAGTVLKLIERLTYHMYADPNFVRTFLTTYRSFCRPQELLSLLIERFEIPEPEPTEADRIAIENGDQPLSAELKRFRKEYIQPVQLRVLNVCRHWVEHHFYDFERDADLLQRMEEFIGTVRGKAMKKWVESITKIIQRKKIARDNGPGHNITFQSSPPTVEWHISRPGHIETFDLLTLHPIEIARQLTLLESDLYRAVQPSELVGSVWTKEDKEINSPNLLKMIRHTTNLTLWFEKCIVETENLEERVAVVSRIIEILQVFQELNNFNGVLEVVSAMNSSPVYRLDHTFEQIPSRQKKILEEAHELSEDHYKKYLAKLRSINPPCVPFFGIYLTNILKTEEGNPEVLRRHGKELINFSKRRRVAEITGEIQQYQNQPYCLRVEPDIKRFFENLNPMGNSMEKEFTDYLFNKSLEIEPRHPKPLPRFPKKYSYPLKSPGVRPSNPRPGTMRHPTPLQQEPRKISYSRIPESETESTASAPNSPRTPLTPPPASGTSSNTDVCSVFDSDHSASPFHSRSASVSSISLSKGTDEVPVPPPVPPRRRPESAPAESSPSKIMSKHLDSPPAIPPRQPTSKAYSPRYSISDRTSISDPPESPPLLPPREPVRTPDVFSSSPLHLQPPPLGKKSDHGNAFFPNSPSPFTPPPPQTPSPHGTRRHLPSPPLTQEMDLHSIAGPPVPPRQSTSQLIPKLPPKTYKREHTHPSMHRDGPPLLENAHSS

[3] = biological target: T1, Son of sevenless homolog 1 (Mus musculus); experiment: Inhibition of SOS1 in overnight serum-starved mouse MEF assessed as reduction in ERK1/2 phosphorylation at 10 to 40 uM pre-incubated for 2 hrs before EGF stimulation for 5 mins by Western blot analysis; format: cell-based
[4] = biological target: T2, Son of sevenless homolog 1 (Homo sapiens, UniProt Q07889); experiment: Allosteric binding affinity to N-terminal 6x-His-tagged recombinant human SOS1 catalytic domain (residues 564 to 1049 residues) expressed in Escherichia coli BL21 (DE3) by label-free microscale thermophoresis analysis
T2 sequence (Q07889 whole entry): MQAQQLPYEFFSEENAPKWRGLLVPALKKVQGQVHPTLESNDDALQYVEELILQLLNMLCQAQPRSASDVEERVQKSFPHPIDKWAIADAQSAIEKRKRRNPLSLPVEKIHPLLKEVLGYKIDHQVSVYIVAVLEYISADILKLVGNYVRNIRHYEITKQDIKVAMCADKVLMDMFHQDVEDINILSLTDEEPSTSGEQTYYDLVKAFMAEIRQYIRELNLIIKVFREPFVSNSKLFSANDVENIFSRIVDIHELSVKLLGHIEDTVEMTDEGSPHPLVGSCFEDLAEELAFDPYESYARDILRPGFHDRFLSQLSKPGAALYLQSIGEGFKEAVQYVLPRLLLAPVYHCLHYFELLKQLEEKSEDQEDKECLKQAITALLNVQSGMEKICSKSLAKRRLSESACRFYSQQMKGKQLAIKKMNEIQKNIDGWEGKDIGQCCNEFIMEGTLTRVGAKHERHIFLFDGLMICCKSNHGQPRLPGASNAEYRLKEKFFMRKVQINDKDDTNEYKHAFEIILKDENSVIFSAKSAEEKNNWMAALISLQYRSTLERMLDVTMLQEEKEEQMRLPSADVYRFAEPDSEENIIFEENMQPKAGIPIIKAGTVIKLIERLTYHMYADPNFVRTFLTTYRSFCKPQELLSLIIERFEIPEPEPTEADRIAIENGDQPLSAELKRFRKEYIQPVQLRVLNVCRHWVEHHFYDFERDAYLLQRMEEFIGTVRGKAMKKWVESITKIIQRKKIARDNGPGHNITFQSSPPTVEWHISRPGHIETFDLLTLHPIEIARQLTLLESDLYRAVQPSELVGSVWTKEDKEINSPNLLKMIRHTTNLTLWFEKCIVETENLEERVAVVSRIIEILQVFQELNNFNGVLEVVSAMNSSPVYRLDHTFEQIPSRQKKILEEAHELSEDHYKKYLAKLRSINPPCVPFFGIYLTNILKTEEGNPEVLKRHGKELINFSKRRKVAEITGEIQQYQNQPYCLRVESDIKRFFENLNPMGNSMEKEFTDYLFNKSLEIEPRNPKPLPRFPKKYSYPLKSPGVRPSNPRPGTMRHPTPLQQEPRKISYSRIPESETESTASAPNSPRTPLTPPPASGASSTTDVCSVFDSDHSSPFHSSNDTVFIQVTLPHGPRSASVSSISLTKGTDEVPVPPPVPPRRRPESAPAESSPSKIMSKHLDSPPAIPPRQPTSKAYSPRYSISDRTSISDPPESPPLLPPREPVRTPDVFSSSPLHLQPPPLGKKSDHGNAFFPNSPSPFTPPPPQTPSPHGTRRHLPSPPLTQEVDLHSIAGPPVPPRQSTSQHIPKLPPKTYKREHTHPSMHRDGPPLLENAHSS

BXPC-3 = experiment: Effect on total AKT protein levels in overnight serum-starved human BxPC3 cells at 40 to 60 uM by Western blotting analysis; format: ADME, cell-based; details: bxpc-3, 60 µM

Intersectin-1 (Homo sapiens), sequence (Q15811 whole entry, the tested form may be a part): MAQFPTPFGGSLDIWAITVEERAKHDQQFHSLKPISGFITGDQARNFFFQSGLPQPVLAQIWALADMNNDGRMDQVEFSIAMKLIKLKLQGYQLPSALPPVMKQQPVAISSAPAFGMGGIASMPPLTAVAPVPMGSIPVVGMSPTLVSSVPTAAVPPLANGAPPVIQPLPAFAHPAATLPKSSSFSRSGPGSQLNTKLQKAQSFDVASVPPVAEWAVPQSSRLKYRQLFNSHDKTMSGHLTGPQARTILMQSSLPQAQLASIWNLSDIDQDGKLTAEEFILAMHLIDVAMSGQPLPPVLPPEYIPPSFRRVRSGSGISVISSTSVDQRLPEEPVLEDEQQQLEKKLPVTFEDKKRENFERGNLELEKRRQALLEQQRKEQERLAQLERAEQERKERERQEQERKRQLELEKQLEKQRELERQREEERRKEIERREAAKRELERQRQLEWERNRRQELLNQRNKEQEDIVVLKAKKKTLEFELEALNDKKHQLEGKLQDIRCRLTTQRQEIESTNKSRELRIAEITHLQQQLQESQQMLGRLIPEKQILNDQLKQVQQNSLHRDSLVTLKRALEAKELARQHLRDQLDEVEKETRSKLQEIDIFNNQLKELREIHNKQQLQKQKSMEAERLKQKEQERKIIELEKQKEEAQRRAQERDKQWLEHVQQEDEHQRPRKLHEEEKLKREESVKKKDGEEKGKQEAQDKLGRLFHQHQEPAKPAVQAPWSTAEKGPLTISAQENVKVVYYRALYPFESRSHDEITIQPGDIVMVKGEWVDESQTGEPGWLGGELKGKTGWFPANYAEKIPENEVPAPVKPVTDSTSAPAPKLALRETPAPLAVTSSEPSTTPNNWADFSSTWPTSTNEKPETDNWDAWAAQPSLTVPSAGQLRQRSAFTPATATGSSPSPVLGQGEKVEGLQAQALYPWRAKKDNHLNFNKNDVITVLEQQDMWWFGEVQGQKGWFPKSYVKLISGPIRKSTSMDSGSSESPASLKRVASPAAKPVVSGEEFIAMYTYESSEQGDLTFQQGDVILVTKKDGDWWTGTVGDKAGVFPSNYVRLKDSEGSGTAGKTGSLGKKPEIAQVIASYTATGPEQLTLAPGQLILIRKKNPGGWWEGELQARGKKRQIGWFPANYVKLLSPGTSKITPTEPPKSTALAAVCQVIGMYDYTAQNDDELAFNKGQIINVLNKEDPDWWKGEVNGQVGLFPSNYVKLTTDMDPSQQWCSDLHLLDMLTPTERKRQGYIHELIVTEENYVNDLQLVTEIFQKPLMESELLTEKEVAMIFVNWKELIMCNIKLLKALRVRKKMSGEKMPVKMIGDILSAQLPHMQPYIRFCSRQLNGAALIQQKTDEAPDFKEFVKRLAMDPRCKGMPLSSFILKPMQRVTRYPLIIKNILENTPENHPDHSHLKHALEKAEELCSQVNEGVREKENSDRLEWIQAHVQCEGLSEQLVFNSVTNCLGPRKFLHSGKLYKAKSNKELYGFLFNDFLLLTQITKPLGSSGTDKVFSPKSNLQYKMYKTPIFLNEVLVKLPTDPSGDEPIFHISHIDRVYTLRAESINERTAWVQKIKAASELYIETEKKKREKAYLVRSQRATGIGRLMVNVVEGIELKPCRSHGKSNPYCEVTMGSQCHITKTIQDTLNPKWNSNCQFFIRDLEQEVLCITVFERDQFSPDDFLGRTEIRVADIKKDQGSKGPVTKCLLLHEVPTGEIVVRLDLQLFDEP

inhibition [1]: inactive
SMILES: O=C(O)c1cc2c3c(c1)C1C=CCC1C(c1ccccc1Cl)N3CC1CC=CC21 (stereo not given)

inhibition [2]: Active
inhibition [3]: Active
SMILES: O=C1Oc2ccccc2C(=O)/C1=C/N1C(=O)/C(=C/c2ccc([N+](=O)[O-])cc2)SC1=S

Kd [4]: 14.2 µM
SMILES: O=[N+]([O-])c1ccccc1/C=C/C=C1c2ccccc2-c2ccccc21
Activity (BXPC-3): Toxic

Reference: ChEMBL document CHEMBL4420078, “Sos1 inhibitors for cancer treatment” (2016)
